Data on 17 compounds can be found in patent US20260224532A1, “ESTROGEN RECEPTOR BETA LIGANDS FOR THE PREVENTION AND TREATMENT OF MULTIPLE SCLEROSIS (MS) AND OTHER DEMYELINATING, INFLAMMATORY AND NEURODEGENERATIVE DISEASES” (The Board of Trustees of the University of Illinois, priority 2023, published 2026).

In experiment [1] the target is T1, purified, full length human ERβ (Homo sapiens, UniProt Q92731).
T1 construct: purified, full length human ERα and ERβ
Briefly: Relative binding affinity (RBA) radiometric competitive binding assay, ERβ. The conditions noted are these: for β/α (ERβ/ERα selectivity): ratio of RBA ERβ to RBA ERα; for RBA ERβ: relative binding affinity, E2 (estradiol) is 100%, tritiated estradiol tracer; for selectivity of binding to ERβ vs ERα: text statement of the β/α ratio; for binding affinity for ERβ (in words): compared with the other 7-substituted indazoles.

Experiment [2] addresses T2, purified, full length human ERα (Homo sapiens, UniProt P03372).
T2 construct: purified, full length human ERα and ERβ
T2 sequence (P03372 1-595): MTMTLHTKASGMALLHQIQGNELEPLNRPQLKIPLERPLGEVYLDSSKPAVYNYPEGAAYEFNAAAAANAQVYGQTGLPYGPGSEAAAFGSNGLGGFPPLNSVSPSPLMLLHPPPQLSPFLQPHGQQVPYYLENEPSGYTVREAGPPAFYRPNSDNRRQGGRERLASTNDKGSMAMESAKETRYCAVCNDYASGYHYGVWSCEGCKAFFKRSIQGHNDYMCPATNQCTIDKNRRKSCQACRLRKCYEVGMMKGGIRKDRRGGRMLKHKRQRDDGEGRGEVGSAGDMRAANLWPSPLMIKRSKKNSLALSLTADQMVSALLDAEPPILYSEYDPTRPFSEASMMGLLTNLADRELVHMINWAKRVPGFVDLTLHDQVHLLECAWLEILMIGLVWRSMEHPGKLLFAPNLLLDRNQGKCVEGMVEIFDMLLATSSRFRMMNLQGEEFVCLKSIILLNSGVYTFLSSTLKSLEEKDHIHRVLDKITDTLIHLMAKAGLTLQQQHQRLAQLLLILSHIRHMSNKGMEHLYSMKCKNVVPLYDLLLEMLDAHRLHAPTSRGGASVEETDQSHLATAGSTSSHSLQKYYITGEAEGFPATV
Briefly: Relative binding affinity (RBA) radiometric competitive binding assay, ERα. The conditions noted are these: for RBA ERα: relative binding affinity, E2 (estradiol) is 100%, tritiated estradiol tracer; for binding affinity for ERα (in words): compared with the other 7-substituted indazoles.

The next experiment relates to Primary OPCs. Put plainly: Primary OPC culture: MBP+ OL differentiation and total cell count (DAPI). The experiment is classed as cell-based, mouse. The conditions noted are these: for number of MBP+ OLs with increased percentage of branched OLs, compared to vehicle-treated cells / total number of cells (DAPI): 10 nM. Here is the method: Primary OPC Cultures: Primary OPCs, isolated from postnatal day P1 C57BL/6 male and female mouse cortices as described previously, are treated with 10 nM ligands in differentiating medium for […] (Tiwari-Woodruff et al., 2001; Tiwari-Woodruff et al., 2006). Primary OPC are cultured into 8-well chamber slides (three wells per condition, 2.5×10^5 cells/well) for three days to attach and five days in differentiating media (consisting of DMEM-F12 with triiodothyronine- and thyroxine-containing Sato as well as penicillin, streptomycin, insulin, N-acetyl-L-cysteine, forskolin, ciliary neurotrophic factor, neurotrophin-3, and platelet-derived growth factor […] (Tiwari-Woodruff et al., 2001)). A positive control (IndC1), a negative control (Vehicle consisting of the media+EtOH mixture used to dissolve IndCl), and a normal control (differentiating media alone) are used for comparison. At the end of the treatment period, cells are fixed, stained by immunocytochemistry (primary antibody polyclonal chicken myelin basic protein (MBP, Millipore AB9348), and co-stained with nuclear stain-DAPI), and imaged with an Olympus BX61 confocal microscope (Olympus America Inc., Center Valley, PA) at 10× magnification (3 images per well). Cells are counted using the ImageJ multipoint tool, and counts are then divided by the image area (mm^2). Average cell density for each condition is then divided by the normal condition cell density. Analysis of OL differentiation consists of counting the number of MBP+ cells and process extensions that are longer than the respective cell-body diameter and tracking the number of highly branched MBP+ cells (with three or more processes) (Monnerie et al., 2017). Statistics are performed using GraphPad Prism 6 Software (La Jolla, CA). One-way ANOVA with Tukey's posthoc test for multiple comparisons is used to generate p-values, and data are presented as mean±SEM (with α≤0.05).
FIG. 1A-1D show the effects of treatment with the 7-substituted indazole compounds on the expression of myelin basic protein in OLs (MBP^+-OLs, top two panels) as an indication of murine oligodendrocyte precursor cell (OPC) differentiation, as well as the count of the total cells as an indication of cell proliferation/survival (DAPI nucleus stain, bottom two panels). The cells were treated with the listed compounds at 10 nM (FIG. 1A, 1B) and at 1 nM (FIG. 1C, 1D).

T1 sequence (Q92731 whole entry): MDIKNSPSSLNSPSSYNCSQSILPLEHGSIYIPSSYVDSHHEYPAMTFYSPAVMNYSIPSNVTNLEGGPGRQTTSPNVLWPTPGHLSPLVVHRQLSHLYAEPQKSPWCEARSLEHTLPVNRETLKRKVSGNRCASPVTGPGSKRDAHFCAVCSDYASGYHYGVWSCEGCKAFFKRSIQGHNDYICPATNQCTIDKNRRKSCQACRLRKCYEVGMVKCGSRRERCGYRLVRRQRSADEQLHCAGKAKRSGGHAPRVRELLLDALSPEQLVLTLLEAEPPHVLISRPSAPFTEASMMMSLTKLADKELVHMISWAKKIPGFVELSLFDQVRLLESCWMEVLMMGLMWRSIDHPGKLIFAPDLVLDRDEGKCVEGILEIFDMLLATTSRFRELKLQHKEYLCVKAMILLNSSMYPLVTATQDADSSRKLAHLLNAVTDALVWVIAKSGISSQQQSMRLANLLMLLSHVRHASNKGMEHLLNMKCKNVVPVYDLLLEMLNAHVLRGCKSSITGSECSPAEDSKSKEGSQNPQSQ

In the case of `Cc1cc(O)cc2cn(-c3ccc(O)cc3)nc12` [Compound 10, 7-methyl-2-(4-hydroxyphenyl)-2H-indazol-5-ol], in experiment [1], the “β/α (ERβ/ERα selectivity)” value worked out at 144, the “RBA ERβ” value was 2.59% and the “selectivity of binding to ERβ vs ERα” value came to 144 fold. The “RBA ERα” value in experiment [2] stood at 0.018%.

On to `Oc1ccc(-n2nc3c(O)cc(O)cc3c2Cl)cc1` [Compound 21, 3-chloro-2-(4-hydroxyphenyl)-2H-indazole-5,7-diol], for which, in experiment [1], the “binding affinity for ERβ (in words)” value was “lower binding affinity”, the “β/α (ERβ/ERα selectivity)” value was 51 and the “RBA ERβ” value amounted to 0.051%. In addition, in experiment [2], the “binding affinity for ERα (in words)” value was “lower binding affinity” and the “RBA ERα” value came out at 0.001%.

For `Oc1ccc(-n2nc3c(Br)cc(O)cc3c2Br)cc1` [Compound 4, 3,7-dibromo-2-(4-hydroxyphenyl)-2H-indazol-5-ol], the “β/α (ERβ/ERα selectivity)” value in experiment [1] was found to be 7. The “RBA ERα” value in experiment [2] is on record as 21.29%.

For `Cc1cc(O)ccc1-n1nc2cc(F)c(O)cc2c1Cl` [Compound 18, 3-Chloro-6-fluoro-2-(4-hydroxy-2-methylphenyl)-2H-indazol-5-ol], in experiment [1], the “β/α (ERβ/ERα selectivity)” value is 4.64 and the “RBA ERβ” value is recorded as 2.53%. In addition, in the experiment with Primary OPCs (1 nM), the “MBP expression / number of MBP+ OLs, compared to vehicle-treated cells” value is “significant increase”. Further, the “number of MBP+ OLs with increased percentage of branched OLs, compared to vehicle-treated cells” value in the experiment with Primary OPCs is listed as “significant increase”. Also, the “RBA ERα” value in experiment [2] was found to be 0.545%.

For `Oc1ccc(-n2nc3c(Br)cc(O)cc3c2Cl)cc1` [Compound 3, 7-bromo-3-chloro-2-(4-hydroxyphenyl)-2H-indazol-5-ol], in experiment [1], the “β/α (ERβ/ERα selectivity)” value stood at 18. For the same compound, the “total number of cells (DAPI)” value in the experiment on Primary OPCs is “reduction”. In addition, the “RBA ERα” value in experiment [2] turned out to be 15.57%.

Take `Cc1cc(O)ccc1-n1nc2c(O)cc(O)cc2c1Cl` [Compound 22, 3-chloro-2-(4-hydroxy-2-methylphenyl)-2H-indazole-5,7-diol]: in experiment [1], the “binding affinity for ERβ (in words)” value is “lower binding affinity”, the “β/α (ERβ/ERα selectivity)” value turned out to be 12 and the “RBA ERβ” value came out at 0.006%. Moreover, in experiment [2], the “binding affinity for ERα (in words)” value is listed as “lower binding affinity” and the “RBA ERα” value is 0.0005%.

`Oc1ccc(-n2nc3c(Cl)cc(O)cc3c2Cl)c(F)c1` [Compound 16, 3,7-dichloro-2-(2-fluoro-4-hydroxyphenyl)-2H-indazol-5-ol]: in experiment [1], the “β/α (ERβ/ERα selectivity)” value came out at 6.74 and the “RBA ERβ” value worked out at 31.76%. Further, the “RBA ERα” value in experiment [2] was determined as 4.71%.

With `Oc1ccc(-n2cc3cc(O)cc(F)c3n2)cc1` [Compound 8, 7-fluoro-2-(4-hydroxyphenyl)-2H-indazol-5-ol], in experiment [1], the “β/α (ERβ/ERα selectivity)” value was 87 and the “RBA ERβ” value is 22.4%. In addition, the “RBA ERα” value in experiment [2] was 0.258%.

Regarding `Oc1ccc(-n2cc3cc(O)cc(Br)c3n2)cc1` [Compound 1, 7-bromo-2-(4-hydroxyphenyl)-2H-indazol-5-ol], in experiment [1], the “β/α (ERβ/ERα selectivity)” value was found to be 131, the “RBA ERβ” value came to 32.01 ± 0.09% and the “selectivity of binding to ERβ vs ERα” value was 131 fold. Further, in the experiment on Primary OPCs, the “number of MBP+ OLs with increased percentage of branched OLs, compared to vehicle-treated cells” value was “significant increase”. The “RBA ERα” value in experiment [2] is reported as 0.244%.

For `Cc1cc(O)ccc1-n1nc2cc(Cl)c(O)cc2c1Cl` [Compound 20, 3,6-dichloro-2-(4-hydroxy-2-methylphenyl)-2H-indazol-5-ol], in experiment [1], the “β/α (ERβ/ERα selectivity)” value worked out at 2.63 and the “RBA ERβ” value turned out to be 0.187%. Moreover, the “RBA ERα” value in experiment [2] came out at 0.071%.

For the compound `Oc1ccc(-n2nc3c(F)cc(O)cc3c2Cl)cc1` [Compound 9, 3-Chloro-7-fluoro-2-(4-hydroxyphenyl)-2H-indazol-5-ol], in experiment [1], the “β/α (ERβ/ERα selectivity)” value came to 37 and the “RBA ERβ” value came out at 82.3%. Also, the “RBA ERα” value in experiment [2] is recorded as 2.2%.

Regarding `Oc1cc(Cl)c2nn(-c3ccc(O)c(F)c3)cc2c1` [Compound 13, 7-Chloro-2-(3-fluoro-4-hydroxyphenyl)-2H-indazol-5-ol], in experiment [1], the “β/α (ERβ/ERα selectivity)” value came out at 469, the “RBA ERβ” value is recorded as 10.76% and the “selectivity of binding to ERβ vs ERα” value worked out at 469 fold. Moreover, the “RBA ERα” value in experiment [2] came to 0.023%.

As to `Oc1ccc(-n2cc3cc(O)cc(Cl)c3n2)cc1` [Compound 6, 7-chloro-2-(4-hydroxyphenyl)-2H-indazol-5-ol], in experiment [1], the “β/α (ERβ/ERα selectivity)” value is recorded as 200, the “RBA ERβ” value was 19.6 ± 6.1% and the “selectivity of binding to ERβ vs ERα” value is reported as 200 fold. Moreover, in experiment [2], the “RBA ERα” value amounted to 0.098%.

Turning to `Oc1ccc(-n2nc3cc(Cl)c(O)cc3c2Cl)cc1` [Compound 19, 3,6-dichloro-2-(4-hydroxyphenyl)-2H-indazol-5-ol], in experiment [1], the “β/α (ERβ/ERα selectivity)” value stood at 15.49 and the “RBA ERβ” value is listed as 0.852%. In experiment [2], the “RBA ERα” value was 0.055%.

Consider `Cc1cc(O)cc2c(Cl)n(-c3ccc(O)cc3)nc12` [Compound 11, 3-Chloro-7-methyl-2-(4-hydroxyphenyl)-2H-indazol-5-ol], for which, in experiment [1], the “β/α (ERβ/ERα selectivity)” value is listed as 17 and the “RBA ERβ” value is recorded as 45.9%. Moreover, the “RBA ERα” value in experiment [2] worked out at 2.76%.

For the compound `Oc1ccc(-n2cc3cc(O)cc(Cl)c3n2)c(F)c1` [Compound 15, 7-chloro-2-(2-fluoro-4-hydroxyphenyl)-2H-indazol-5-ol], in experiment [1], the “β/α (ERβ/ERα selectivity)” value was determined as 185, the “RBA ERβ” value stood at 9.63% and the “selectivity of binding to ERβ vs ERα” value is 185 fold. The “RBA ERα” value in experiment [2] worked out at 0.052%.

`Oc1ccc(-n2nc3c(Br)cc(O)cc3c2F)cc1` [Compound 2, 7-bromo-3-fluoro-2-(4-hydroxyphenyl)-2H-indazol-5-ol]: the “β/α (ERβ/ERα selectivity)” value in experiment [1] is 70.1. In addition, the “total number of cells (DAPI)” value with Primary OPCs was “reduction”. The “RBA ERα” value in experiment [2] is reported as 2.27%.
